In the NIST ThermoML archive (doi:10.1016/j.jct.2010.06.003):
Numbers after ± are expanded uncertainties.

Experiments:
[1] = Crystal; DTA
[2] = Molar enthalpy of transition or fusion; details: Crystal; DSC

Row | Structure (SMILES) | Triple point temperature [1] | Molar enthalpy of transition or fusion [2]
1 | O=c1oc2ccccc2cc1O [3-hydroxycoumarin] | 425.62 ± 0.39 K | 6.48 ± 0.146 kcal/mol
2 | O=c1cc(O)c2ccccc2o1 [4-hydroxycoumarin] | 483.62 ± 0.91 K | 5.54 ± 0.141 kcal/mol
